Several values for one entry are separate records, joined by “and”; a condition that tells them apart may be missing. Equal entries are not always repeated. Entries after “also recorded” stand apart in the source; their conditions may differ. Non-standard residues stand in square brackets, D forms with d. Residues, ends and D or L forms follow the SMILES beside them. pGlu = O=C1CC[C@@H](C(=O)O)N1

In assay [1] the test system is release of FSH. As to conditions: comparison with purified hypothalamic fractions; cited from earlier work.
The test system of assay [2] is release of LH. As to the kind of experiment: Release of LH in rats after sc injection. Type of assay: in vivo. As to conditions: for release of LH compared with LHRH: sc injection, dose and time as stated in the source. From the text: (§1) The data on the release of LH and FSH in rats by modifications of LHRH with one structural change are in Table II.
(§2) Exclusive of the salmon-LHRH, only one of the six decapeptides with two structural changes had significant activity.

Assay [3] has as its system release of FSH. As to the kind of experiment: Release of FSH in rats after sc injection. Type of assay: in vivo.
From the text: as §1, §2

Assay [4] deals with rat pituitary cells. The settings on record: in vitro, rat pituitary cells; Miyamoto et al. (b); cited from earlier work.
Assay [5] deals with rat anterior pituitary cells in primary culture. As to conditions: in vitro, rat pituitary cells; Sherwood et al. (a), Miyamoto et al. (b); cited from earlier work.
The target in assay [6] is T1, receptor identified with LHRH (Rattus norvegicus, UniProt P30969).
T1 construct: in tissue there is very likely a different receptor; from tissue
T1 sequence (P30969 1-327): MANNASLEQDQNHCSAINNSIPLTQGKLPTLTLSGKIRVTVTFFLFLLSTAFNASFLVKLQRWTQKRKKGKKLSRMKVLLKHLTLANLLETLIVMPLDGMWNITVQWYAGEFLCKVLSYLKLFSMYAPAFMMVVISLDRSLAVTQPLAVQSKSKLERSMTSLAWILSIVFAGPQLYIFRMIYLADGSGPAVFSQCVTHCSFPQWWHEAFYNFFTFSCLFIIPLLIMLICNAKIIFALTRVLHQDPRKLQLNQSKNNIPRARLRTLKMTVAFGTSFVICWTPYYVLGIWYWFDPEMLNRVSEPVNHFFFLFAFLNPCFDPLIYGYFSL
The assay is described as follows: Radio receptor assay (RRA) with 125I-D-Lys6-LHRH as ligand. Type of assay: binding. The settings on record: relative to LHRH. From the text: Data are included in Table II, III, IV and V from radio receptor assays as described by Heber et al. (Am. J. Physiol. […]: E227-E230 (1978)).
For the radio receptor assay, labelled ^125 I-D-Lys^6 -LHRH, was utilized as the ligand. The results are expressed as the relative inhibitory binder of the analog to LHRH at ID50 values.

For assay [7], the system named is release of FSH. The assay is described as follows: Release of FSH in rats after sc injection. Type of assay: in vivo. As to conditions: dose and time as stated in the source.
For assay [8], the system named is release of FSH. As to conditions: at 1000 and 5000 ng; cited from earlier work.
The subject of assay [9] is release of LH. As to conditions: at 1000 and 5000 ng; cited from earlier work.
Assay [10] deals with ovulation. The settings on record: 250 ng; rats; cited from earlier work.
Where [11] appears, read: 15 min. after sc injection, 50 ng, LHRH = 100.
Setting [12] is: 15 min. after sc injection, 100 ng, LHRH = 100.
Where [13] appears, read: 15 min. after sc injection, 100 ng, experiment marked *.
Setting [14] is: 15 min. after sc injection, 100 ng, experiment marked *, LHRH* = 100.
Where [15] appears, read: 15 min. after sc injection, 1000 ng, LHRH = 100.
[16] abbreviates: 15 min. after sc injection, 1000 ng, experiment marked *.
Setting [17] is: 30 min. after sc injection, 50 ng, LHRH = 100.
The mark [18] stands for this setting: 30 min. after sc injection, 100 ng, LHRH = 100.
Where [19] appears, read: 30 min. after sc injection, 1000 ng, LHRH = 100.
Where [20] appears, read: 60 min. after sc injection, 300 ng, LHRH = 100.
[21] abbreviates: 60 min. after sc injection, 3000 ng, LHRH = 100.
[22] abbreviates: release 15 min. after sc injection, dosage of peptide 50 ng.
The mark [23] stands for this setting: release 15 min. after sc injection, dosage of peptide 100 ng.
The mark [24] stands for this setting: release 15 min. after sc injection, dosage of peptide 1000 ng.
Where [25] appears, read: release 30 min. after sc injection, dosage of peptide 50 ng.
Where [26] appears, read: release 30 min. after sc injection, dosage of peptide 100 ng.
[27] abbreviates: release 60 min. after sc injection, dosage of peptide 300 ng.
Setting [28] is: release 60 min. after sc injection, dosage of peptide 3000 ng.

As to `CC(C)C[C@H](NC(=O)CNC(=O)[C@H](Cc1ccc(O)cc1)NC(=O)[C@H](CO)NC(=O)[C@H](Cc1c[nH]c2ccccc12)NC(=O)[C@H](Cc1c[nH]cn1)NC(=O)[C@@H]1CCC(=O)N1)C(=O)N[C@@H](CCCNC(=N)N)C(=O)N1CCC[C@H]1C(=O)NCC(N)=O` [LHRH, pGlu--His--Trp--Ser--Tyr--Gly--Leu--Arg--Pro--Gly--NH2, reference compound], the FSH released entry in assay [1] is reported as “ca. 18,000 ng/ml”. For the same molecule, the LH % change was determined as 100% in assay [2] (setting [11]); 100% in [2] (setting [12]); 100% in assay [2] (setting [14]); 100% in assay [2] (setting [15]); 100% in assay [2] (15 min. after sc injection, 1000 ng, experiment marked *, LHRH* = 100); 100% in [2] (setting [17]). The LH % change in [2] (setting [18]), in assay [2] (setting [19]), in [2] (setting [20]) and in [2] (setting [21]) was 100% throughout. For the same molecule, the LH in assay [2] (setting [13]) was found to be 21 ng/mL; in [2] (setting [16]) it was 39 ng/mL; in [2] (setting [22]), 16 ng/mL; in [2] (setting [23]) it was 24 ng/mL; in assay [2] (setting [24]), 57 ng/mL; in assay [2] (setting [25]), 18 ng/mL. Further, the LH was 11 ng/mL in [2] (setting [26]); 11 ng/mL and 17 ng/mL in assay [2] (setting [27]); 82 ng/mL and 113 ng/mL in assay [2] (setting [28]). The FSH % change in [3] (setting [11]), in assay [3] (setting [12]), in assay [3] (setting [14]), in [3] (setting [15]), in [3] (setting [17]) and in assay [3] (setting [18]) was 100% in each case. The FSH % change in assay [3] (setting [19]), in assay [3] (setting [20]) and in assay [3] (setting [21]) was 100% throughout. The FSH came out at 455 ng/mL in assay [3] (setting [13]); 576 ng/mL in [3] (setting [16]); 550 ng/mL in assay [3] (setting [22]); 465 ng/mL in assay [3] (setting [23]); 483 ng/mL in [3] (setting [24]); 515 ng/mL in [3] (setting [25]). Besides, the FSH in [3] (setting [26]) is 494 ng/mL and 434 ng/mL; in assay [3] (release 30 min. after sc injection, dosage of peptide 1000 ng) it was 691 ng/mL and 1010 ng/mL; in assay [3] (setting [27]), 596 ng/mL and 554 ng/mL; in [3] (setting [28]), 1173 ng/mL and 1501 ng/mL. Besides, the “activity to release FSH relative to P/O LHRH” value in assay [4] is 100%. The “activity (potency) to release LH relative to P/O LHRH” value in [5] is 100%.
Turning to `NC(=O)CC[C@H](NC(=O)[C@H](Cc1c[nH]c2ccccc12)NC(=O)CNC(=O)[C@H](Cc1c[nH]cn1)NC(=O)[C@H](CO)NC(=O)[C@H](Cc1c[nH]c2ccccc12)NC(=O)[C@H](Cc1c[nH]cn1)NC(=O)[C@@H]1CCC(=O)N1)C(=O)N1CCC[C@H]1C(=O)NCC(N)=O` [[His^5 Trp^7 Gln^8]--LHRH, p-Glu His Trp Ser His Gly Trp Gln Pro Gly-NH2] ([pGlu]HWSHGWQPG-NH2), the figures for the LH % change in assay [2] (setting [20]) and in assay [2] (setting [21]) were 46% and 65%, respectively. Moreover, the LH in assay [2] (setting [23]) was determined as 17 ng/mL; in [2] (setting [24]), 66 ng/mL; in assay [2] (setting [27]), 5 ng/mL; in assay [2] (setting [28]), 53 ng/mL. Also, the “release of LH compared with LHRH” value in [2] was “released less LH; also recorded: released equivalent levels of LH and FSH when monitored 15 minutes after injection; also recorded: as effective at 100 ng as LHRH; also recorded: about two times as effective as [His^5, Trp^7 Leu^8 ]-LHRH”. For the same molecule, in assay [3] (setting [20]), the FSH % change was 68% and 67.8%. Besides, the FSH in [3] (setting [23]) turned out to be 403 ng/mL; in assay [3] (setting [24]), 486 ng/mL; in assay [3] (setting [27]), 404 ng/mL; in assay [3] (setting [28]) it was 1161 ng/mL. For the same molecule, the “level at which effectiveness in the radioreceptor assay for LHRH is achieved, times that of LHRH” value in assay [6] is reported as 46 times. In addition, the “release of FSH compared with LHRH” value in assay [7] is “as much FSH at the higher dosage of 3000 ng as LHRH; also recorded: released equivalent levels of LH and FSH when monitored 15 minutes after injection; also recorded: released as much FSH as LHRH”.
Take `CC(C)C[C@H](NC(=O)CNC(=O)[C@H](Cc1ccc(O)cc1)NC(=O)[C@H](CO)NC(=O)[C@H](Cc1c[nH]c2ccccc12)NC(=O)[C@H](Cc1c[nH]cn1)NC(=O)[C@@H]1CCC(=O)N1)C(=O)N[C@@H](CC(C)C)C(=O)N1CCC[C@H]1C(=O)NCC(N)=O` [[Leu^8]--LHRH, p-Glu His Trp Ser Tyr Gly Leu Leu Pro Gly-NH2, reference compound]: the “release of LH compared with LHRH” value in assay [2] was “relatively low activities”. Also, the “release of FSH compared with LHRH” value in assay [3] (sc injection, dose and time as stated in the source) is reported as “relatively low activities”. The “activity for FSH release” value in [8] is reported as “Inactive”. Moreover, the “activity for LH release” value in assay [9] is reported as “Inactive”.
As for “[N-Ac-D-2-Nal^1, D-pClPhe^2, D-3-Pal^3, D-Arg^6, Trp^7, D-Ala10 ]-LHRH”, the antiovulatory activity result in assay [10] is on record as “ca. 90%”.

Source of the values: patent US4721775A, “Effective peptides related to the luteinizing hormone releasing hormone from L-amino acids” (Board of Regents, The University of Texas System, priority 1985, dated 1988).
